# Measurements from patent publication US10668047B2, “Aziridine containing DNA alkylating agents” (priority 2015, dated 2020).
# Like-named read-outs stand apart in the source and are kept apart here.
# Test system: H460 non-cell lung cancer human tumor cell line
# Assay: In vitro human tumor cell line cytotoxicity (proliferation) assay, AlamarBlue
# Type: cell-based
# Experimental: IC50 values are reported in micromolar and result from exposure of compound at various concentrations for 2 hrs followed by a wash step and addition of fresh media followed by growth and cell viability staining and comparison to a media only treated control.
# Specifically, exponentially growing cells are seeded at a density of 4×10^3 cells per well in a 96 well plate and incubated at 37° C. in 5% CO2, 95% air and 100% relative humidity for 24 hours prior to addition of test compounds. Compounds are solubilized in 100% DMSO at 200 times the desired final test concentration. At the time of drug addition, compounds are further diluted to 4 times the desired final concentration with complete medium. Aliquots of 50 μl of compound at specified concentrations are added to microtiter wells already containing 150 μl of medium, resulting in the final drug concentration reported. After drug addition, the plates are incubated for an additional 2 hours at 37° C., 5% CO2, 95% air, and 100% relative humidity, then the drug is washed off and fresh medium is added and the plates are incubated for addition 70 hrs at 37° C., 5% CO2, 95% air and 100% relative humidity. At the end of this incubation, the viable cells are quantified using the AlamarBlue assay. The drug concentration resulting in growth inhibition of 50% (IC50) is calculated using Prism software (Irvine, Calif.), and the results are listed in the table.
# [1] = Homo sapiens, NCI-H460, H460 cells, under air, 2 hrs exposure, wash, then 70 hrs growth, read-out: IC50 (air)
# [2] = Homo sapiens, NCI-H460, H460 cells, under nitrogen, 2 hrs exposure, wash, then 70 hrs growth, read-out: IC50 (N2)
Structure (SMILES),IC50 [1] [µM],IC50 [2] [µM],other results
CCCC(OP(=O)(N1CC1)N1CC1)c1ccc([N+](=O)[O-])cc1OC (centres unmarked) [compound 2595],3.2,0.2,
CC(C)Oc1cc([N+](=O)[O-])ccc1COP(=O)(N1CC1)N1CC1 [compound 2599],1.5,0.08,
COc1cc([N+](=O)[O-])ccc1C(C)OP(=O)(N1CC1)N1CC1 (centres unmarked) [compound 2600],2.8,0.05,
O=[N+]([O-])c1cc(Cl)c(COP(=O)(N2CC2)N2CC2)c(Cl)c1 [compound 2602],0.25,0.02,
CC(C)C(OP(=O)(N1CC1)N1CC1)c1ncc([N+](=O)[O-])n1CCN1CCCCC1 (centres unmarked) [compound 2603],29,0.3,
CC(C)C(OP(=O)(N1CC1)N1CC1)c1ncc([N+](=O)[O-])n1C(C)C (centres unmarked) [compound 2604],320,0.7,
O=[N+]([O-])c1ccc(COP(=O)(N2CC2)N2CC2)c(Br)c1 [compound 2608],3.1,0.3,
CCC(CC)C(OP(=O)(N1CC1)N1CC1)c1ncc([N+](=O)[O-])n1C (centres unmarked) [compound 2609],370,0.4,
CCCC(OP(=O)(N1CC1)N1CC1)c1c(C)cccc1[N+](=O)[O-] (centres unmarked) [compound 2610],350,51,
Cc1cc([N+](=O)[O-])ccc1C(C)OP(=O)(N1CC1)N1CC1 (centres unmarked) [compound 2611],14,0.2,
CC(OP(=O)(N1CC1)N1CC1)c1ccc([N+](=O)[O-])c(C(F)(F)F)c1 (centres unmarked) [compound 2613],26,0.3,
Cc1cccc([N+](=O)[O-])c1C(C)OP(=O)(N1CC1)N1CC1 (centres unmarked) [compound 2615],350,320,
COc1ccc(C(C)OP(=O)(N2CC2)N2CC2)c([N+](=O)[O-])c1 (centres unmarked) [compound 2616],17,3.7,
CC(C)C(OP(=O)(N1CC1)N1CC1)c1ncc([N+](=O)[O-])n1C1CCCC1 (centres unmarked) [compound 2619],99,2.3,
COc1cc(C(C)OP(=O)(N2CC2)N2CC2)ccc1[N+](=O)[O-] (centres unmarked) [compound 2620],7.4,2.5,
CC(OP(=O)(N1CC1)N1CC1)c1ccc([N+](=O)[O-])c(O)c1 (centres unmarked) [compound 2621],39,0.3,
CC(C)C(OP(=O)(N1CC1)N1CC1)c1nc(Br)c([N+](=O)[O-])n1C (centres unmarked) [compound 2624],160,0.5,
O=[N+]([O-])c1ccc(COP(=O)(N2CC2)N2CC2)c(-c2ccccc2)c1 [compound 2626],3.3,0.6,
CC(C)n1c([N+](=O)[O-])cnc1COP(=O)(N1CC1)N1CC1 [compound 2627],32,0.5,
Cn1c([N+](=O)[O-])cnc1C(OP(=O)(N1CC1)N1CC1)C1CCCCC1 (centres unmarked) [compound 2633],83,0.3,
O=[N+]([O-])c1cnc(COP(=O)(N2CC2)N2CC2)n1C1CCCC1 [compound 2635],13,0.22,
COc1cccc([N+](=O)[O-])c1COP(=O)(N1CC1)N1CC1 [compound 2637],23,0.8,
Cn1c([N+](=O)[O-])cnc1C(OP(=O)(N1CC1)N1CC1)C(c1ccccc1)c1ccccc1 (centres unmarked) [compound 2640],83,1.1,
CC(C)C(OP(=O)(N1CC1)N1CC1)c1ncc([N+](=O)[O-])n1CCOC(C)(C)C (centres unmarked) [compound 2643],37,0.6,
CCCCC(CCCC)C(OP(=O)(N1CC1)N1CC1)c1ncc([N+](=O)[O-])n1C (centres unmarked) [compound 2645],30,1.6,

Structure (SMILES),IC50 [1] [µM],IC50 [2] [µM],other results
O=[N+]([O-])c1ccc2c(c1)CCC2OP(=O)(N1CC1)N1CC1 (centres unmarked) [compound 2652],2.2,0.02,
Cn1c([N+](=O)[O-])cnc1C(CO)OP(=O)(C1CC1)N1CC1 (centres unmarked) [compound 2654],> 500,260,
O=[N+]([O-])c1ncn(-c2ccc(C(F)(F)F)cc2)c1COP(=O)(N1CC1)N1CC1 [compound 2656],2.4,0.1,
CC(C)C(OP(=O)(N1CC1)N1CC1)c1ncc([N+](=O)[O-])n1CCO (centres unmarked) [compound 2658],86,0.3,
CCC(OP(=O)(N1CC1)N1CC1)c1ncc([N+](=O)[O-])n1C (centres unmarked) [compound 2662],22,0.03,
O=[N+]([O-])c1ccc(COP(=O)(N2CC2)N2CC2)cc1F [compound 2666],24,2,
Cc1cc(C(C)OP(=O)(N2CC2)N2CC2)ccc1[N+](=O)[O-] (centres unmarked) [compound 2672],180,3.1,
O=[N+]([O-])c1ccc2c(c1)CCCC2OP(=O)(N1CC1)N1CC1 (centres unmarked) [compound 2675],3.4,0.05,
O=[N+]([O-])c1ccc2c(c1)CCCC2OP(=O)(N1CC1)N1CC1 (centres unmarked) [compound 2676],,,"IC50 (H460 cells, under air, 2 hrs exposure, wash, then 70 hrs growth, read-out: IC50 (air)): 3.7 µM; IC50 (H460 cells, under nitrogen, 2 hrs exposure, wash, then 70 hrs growth, read-out: IC50 (N2)): 0.1 µM"
CC(OP(=O)(N1CC1)N1CC1)c1ccc([N+](=O)[O-])c(F)c1 (centres unmarked) [compound 2678],32,0.4,
CNc1cc(C(C)OP(=O)(N2CC2)N2CC2)ccc1[N+](=O)[O-] (centres unmarked) [compound 2679],34,2.9,
CC(OP(=O)(N1CC1)N1CC1)c1ccc([N+](=O)[O-])c(N(C)C)c1 (centres unmarked) [compound 2680],110,2.6,
CCC(OP(=O)(N1CC1)N1CC1)c1ccc([N+](=O)[O-])cc1 (centres unmarked) [compound 2681],28,0.3,
CC(=O)OCC(OP(=O)(N1CC1)N1CC1)c1ccc([N+](=O)[O-])cc1 (centres unmarked) [compound 2686],79,3.1,
CC(OP(=O)(N1CC1)N1CC1)c1ccc([N+](=O)[O-])c(NC2CC2)c1 (centres unmarked) [compound 2687],15,2.2,
C=CCC(OP(=O)(N1CC1)N1CC1)c1ccc([N+](=O)[O-])cc1 (centres unmarked) [compound 2689],43,0.6,
O=[N+]([O-])c1ccc(C(CC(F)(F)F)OP(=O)(N2CC2)N2CC2)cc1 (centres unmarked) [compound 2690],99,3.2,
CC(OP(=O)(N1CC1)N1CC1)c1ccc([N+](=O)[O-])c(N=[N+]=[N-])c1 (centres unmarked) [compound 2691],2.3,2.3,
CC(OP(=O)(N1CC1)N1CC1)c1ccc([N+](=O)[O-])c(N)c1 (centres unmarked) [compound 2692],6.2,2.7,
CC(OP(=O)(N1CC1)N1CC1)c1ccc([N+](=O)[O-])c(Nc2ccccc2)c1 (centres unmarked) [compound 2693],1.9,0.4,
CC(OP(=O)(N1CC1)N1CC1)c1ccc([N+](=O)[O-])c(N2CCOCC2)c1 (centres unmarked) [compound 2695],130,4.2,
CC(OP(=O)(N1CC1)N1CC1)c1ccc([N+](=O)[O-])c(N2CCCCC2)c1 (centres unmarked) [compound 2696],310,7.4,
CC(OP(=O)(N1CC1)N1CC1)c1ccc([N+](=O)[O-])c(Nc2ccc([N+](=O)[O-])cc2)c1 (centres unmarked) [compound 2697],,,"IC50 (Homo sapiens, NCI-H460, read-out: IC50 (N2), H460 cells, under nitrogen, 2 hrs exposure, wash, then 70 hrs growth): 0.5 µM; IC50 (Homo sapiens, NCI-H460, read-out: IC50 (air), H460 cells, under air, 2 hrs exposure, wash, then 70 hrs growth): 1.5 µM"
CC(OP(=O)(N1CC1)N1CC1)c1ccc([N+](=O)[O-])c(OCC(F)(F)F)c1 (centres unmarked) [compound 2698],3.7,1.6,
